US10660872B2, “Methods for treatment of cognitive decline” (Ramot at Tel-Aviv University Ltd., priority 2014, dated 2020)

Columns and labels:
ICR mice [1] = test: body temperature using a rectal thermometer; details: single intraperitoneal dose
ICR mice [2] = test: hot plate test (analgesia); details: single intraperitoneal dose, from 15 minutes after injection, hotplate 45° C.
aged ICR mice = test: oasis maze test (spatial learning); details: 0.002 mg/kg THC, three times a week for three weeks
aged mice = test: Object Recognition Test (visual memory) in aged mice; details: 0.002 mg/kg THC intraperitoneal, 3 times a week for three weeks
ICR mice [3] = test: open field test (immobility); details: single intraperitoneal dose, five minutes in arena
[4] = conventional dose 1, 2 or 10 mg/kg
[5] = low dose 0.001, 0.002 or 0.01 mg/kg

CCCCCc1cc(O)c2c(c1)OC(C)(C)[C@@H]1CCC(C)=C[C@@H]21 [THC, (−)-trans-Δ^9-tetrahydrocannabinol]
hypothermia (reduced body temperature) (ICR mice [1]; [4]): induced conventional acute cannabinoid effects
hypothermia (reduced body temperature) (ICR mice [1]; [5]): failed to induce any of these effects
analgesia (latency to respond to noxious stimulus) (ICR mice [2]; [4]): induced conventional acute cannabinoid effects
analgesia (latency to respond to noxious stimulus) (ICR mice [2]; [5]): failed to induce any of these effects
time to finding the filled well in test trials (aged ICR mice): find the filled well in significantly less time than aged mice treated with vehicle alone
adverse acute effects upon administration (aged mice): No adverse acute effects were recognized
immobility (slowing of motor activity) (ICR mice [3]; [4]): induced conventional acute cannabinoid effects
immobility (slowing of motor activity) (ICR mice [3]; [5]): failed to induce any of these effects
